These results are taken from patent US10568879B2 (GALAPAGOS NV, priority 2015, dated 2020).

SMILES strings stand for the structures.

Broadly, the IC50 is the concentration that gives 50% inhibition. A higher IC50 goes with lower potency.

T1 sequence (Q9NQS5 whole entry): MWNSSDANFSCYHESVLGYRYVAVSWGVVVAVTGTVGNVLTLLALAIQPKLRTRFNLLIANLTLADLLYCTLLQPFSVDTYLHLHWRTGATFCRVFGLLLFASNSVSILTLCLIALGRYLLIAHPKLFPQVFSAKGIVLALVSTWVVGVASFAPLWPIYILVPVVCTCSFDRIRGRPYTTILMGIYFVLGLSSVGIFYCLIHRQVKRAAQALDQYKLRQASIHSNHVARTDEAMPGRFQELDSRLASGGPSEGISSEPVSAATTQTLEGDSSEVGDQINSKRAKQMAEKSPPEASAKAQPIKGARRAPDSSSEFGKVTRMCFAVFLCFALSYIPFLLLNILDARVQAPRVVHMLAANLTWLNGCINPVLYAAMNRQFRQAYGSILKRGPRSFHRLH

The test concerns the target T1, GPR84 (Homo sapiens, UniProt Q9NQS5).
T1 construct: expressed in transfected cells
In words: GPR84 [35S]GTPγS binding assay. It is filed as biochemical. Conditions: 3,3′-diindolylmethane at EC80; membranes from stable cell line over expressing GPR84. The procedure:
The following assay can be used for determination of GPR84 activation. The [^35S]GTPγS binding assay measures the level of G protein activation following agonist occupation of a GPCR, by determining the binding of the non-hydrolysable analog [^35S]GTPγS to Gα subunits.
The assay is performed in a 96-well plate where the following reagents are added. First 50 μL compound is added into the assay plate, followed by addition of 20 μL 3,3′-diindolylmethane at EC80 concentration (concentration which gives 80% of the activity of GPR84). Then, 30 μL of a mixture consisting of membranes-GTPγS-SpA beads is added [mixture consists of 20 μg/well membranes derived from stable cell line over expressing GPR84 (membranes are pre-incubated with 0.1 μM GDP for 15 min at 4° C.), 0.1 nM [^35S]GTPγS (Perkin Elmer, NEG030) and 0.5 mg/well PVT-WGA SpA beads (Perkin Elmer, RPNQ0001)]. All components are diluted in assay buffer containing 20 mM Tris pH 7.5; 5 mM MgCl2; 250 mM NaCl; 0.05% BSA; 75 μg/mL saponin. After an incubation of 90 min at room temperature, 20 μL CsCl2 0.8 M (MP Biomedicals, 02150589) is added, followed by centrifugation at 2000 rpm during 20 min. Plates are read on a topcount reader (perkin elmer) immediately after centrifugation (readout time, 1 min/well).
Turning to `Cc1c2n(c(OC[C@@H]3COCCO3)cc1=O)CCc1cc(N3CCN(S(C)(=O)=O)CC3)ccc1-2` [Compound 68], the IC50 lay in the range of 0.01 to 100 nM.

Take `Cc1c2n(c(OC[C@@H]3COCCO3)cc1=O)CCc1cc(N(C)C(=O)C3CC3)ccc1-2` [Compound 73, N-[4-[[(2S)-1,4-dioxan-2-yl]methoxy]-1-methyl-2-oxo-6,7-dihydrobenzo[a]quinolizin-9-yl]-N-methyl-cyclopropanecarboxamide]: the IC50 lay within 100 to 500 nM. The result for `Cc1c2n(c(OC[C@@H]3COCCO3)cc1=O)CCc1cc(C3=CCN(C(=O)OC(C)(C)C)CC3)ccc1-2` [Compound 74, tert-butyl 4-[4-[[(2S)-1,4-dioxan-2-yl]methoxy]-1-methyl-2-oxo-6,7-dihydrobenzo[a]qunolizin-9-yl]-3,6-dihydro-2H-pyridine-1-carboxylate] reads 0.01 to 100 nM; that for `Cc1c2n(c(OC[C@@H]3COCCO3)cc1=O)CCc1cc(C3CCN(C(=O)OC(C)(C)C)CC3)ccc1-2` [Compound 75, tert-butyl 4-[4-[[(2S)-1,4-dioxan-2-yl]methoxy]-1-methyl-2-oxo-6,7-dihydrobenzo[a]quinolizin-9-yl]piperidine-1-carboxylate], 0.01 to 100 nM. The result for `Cc1c2n(c(OC[C@@H]3COCCO3)cc1=O)CCc1cc(C(=O)NC3CC3)ccc1-2` [Compound 84, N-cyclopropyl-4-[[(2S)-1,4-dioxan-2-yl]methoxy]-1-methyl-2-oxo-6,7-dihydrobenzo[a]quinolizine-9-carboxamide] reads over 1000 nM; that for `Cc1c2n(c(OC[C@@H]3COCCO3)cc1=O)CCc1cc(O)ccc1-2` [Compound 85, 4-[[(2S)-1,4-dioxan-2-yl]methoxy]-9-hydroxy-1-methyl-6,7-dihydrobenzo[a]quinolizin-2-one], 100 to 500 nM; that for `Cc1c2n(c(OC[C@@H]3COCCO3)cc1=O)CCc1cc(N3CC4(COC4)C3)ccc1-2` [Compound 87, 4-[[(2S)-1,4-dioxan-2-yl]methoxy]-1-methyl-9-(6-oxa-2-azaspiro[3.3]heptan-2-yl)-6,7-dihydrobenzo[a]quinolizin-2-one], 500 to 1000 nM. As for `Cc1c2n(c(OC[C@@H]3COCCO3)cc1=O)CCc1cc(C(=O)N(C)C3CC3)ccc1-2` [Compound 88, N-cyclopropyl-4-[[(2)S-1,4-dioxan-2-yl]methoxy]-N,1-dimethyl-2-oxo-6,7-dihydrobenzo[a]quinolizine-9-carboxamide], the figure is over 1000 nM. In the case of `COc1ccc2c(c1)CCn1c(OC[C@@H]3COCCO3)cc(=O)c(C)c1-2` [Compound 89, 4-[[(2S)-1,4-dioxan-2-yl]methoxy]-9-methoxy-1-methyl-6,7-dihydrobenzo[a]quinolizin-2-one], the IC50 is 0.01 to 100 nM. The result for `Cc1c2n(c(OC[C@@H]3COCCO3)cc1=O)CCc1cc(N3CC(C(C)(C)O)C3)ccc1-2` [Compound 92, 4-[[(2S)-1,4-dioxan-2-yl]methoxy]-9-[3-(1-hydroxy-1-methyl-ethyl)azetidin-1-yl]-1-methyl-6,7-dihydrobenzo[a]quinolizin-2-one] reads 100 to 500 nM; that for `Cc1c2n(c(OC[C@@H]3COCCO3)cc1=O)CCc1cc(N3CC(S(C)(=O)=O)C3)ccc1-2` [Compound 94, 4-[[(2S)-1,4-dioxan-2-yl]methoxy]-1-methyl-9-(3-methylsulfonylazetidin-1-yl)-6,7-dihydrobenzo[a]quinolizin-2-one], 500 to 1000 nM; that for `Cc1c2n(c(OC[C@@H]3COCCO3)cc1=O)CCc1cc(N3CC(C)(C)C3)ccc1-2` [Compound 96, 9-(3,3-dimethylazetidin-1-yl)-4-[[(2S)-1,4-dioxan-2-yl]methoxy]-1-methyl-6,7-dihydrobenzo[a]quinolizin-2-one], 0.01 to 100 nM.

For the compound `COC(=O)C1CN(c2ccc3c(c2)CCn2c(OC[C@@H]4COCCO4)cc(=O)c(C)c2-3)C1` [Compound 97], the IC50 was 100 to 500 nM. As for `Cc1c2n(c(OC[C@@H]3COCCO3)cc1=O)CCc1cc(-c3cccnc3)ccc1-2` [Compound 98, 4-[[(2S)-1,4-dioxan-2-yl]methoxy]-1-methyl-9-(3-pyridyl)-6,7-dihydrobenzo[a]quinolizin-2-one], the figure is 100 to 500 nM.

Turning to `Cc1c2n(c(OC[C@@H]3COCCO3)cc1=O)CCc1cc(-c3cccc(F)c3)ccc1-2` [Compound 99, 4-[[(2S)-1,4-dioxan-2-yl]methoxy]-9-(3-fluorophenyl)-1-methyl-6,7-dihydrobenzo[a]quinolizin-2-one], the IC50 lay in the range of 0.01 to 100 nM.

`Cc1c2n(c(OC[C@@H]3COCCO3)cc1=O)CCc1cc(-c3ccncc3)ccc1-2` [Compound 100, 4-[[(2S)-1,4-dioxan-2-yl]methoxy]-1-methyl-9-(4-pyridyl)-6,7-dihydrobenzo[a]quinolizin-2-one] had an IC50 of 0.01 to 100 nM. As to `Cc1c2n(c(OC[C@@H]3COCCO3)cc1=O)CCc1cc(-c3ccccn3)ccc1-2` [Compound 101, 4-[[(2S)-1,4-dioxan-2-yl]methoxy]-1-methyl-9-(2-pyridyl)-6,7-dihydrobenzo[a]quinolizin-2-one], the IC50 is 0.01 to 100 nM. The compound `Cc1cccnc1-c1ccc2c(c1)CCn1c(OC[C@@H]3COCCO3)cc(=O)c(C)c1-2` [Compound 102, 4-[[(2S)-1,4-dioxan-2-yl]methoxy]-1-methyl-9-(3-methyl-2-pyridyl)-6,7-dihydrobenzo[a]quinolizin-2-one] came in with an IC50 of 0.01 to 100 nM. The compound `Cc1ccnc(-c2ccc3c(c2)CCn2c(OC[C@@H]4COCCO4)cc(=O)c(C)c2-3)c1` [Compound 103, 4-[[(2S)-1,4-dioxan-2-yl]methoxy]-1-methyl-9-(4-methyl-2-pyridyl)-6,7-dihydrobenzo[a]quinolizin-2-one] gave an IC50 of 0.01 to 100 nM. The compound `Cc1c2n(c(OC[C@@H]3COCCO3)cc1=O)CCc1cc(OC3CN(C(=O)OC(C)(C)C)C3)ccc1-2` [Compound 104, tert-butyl 3-[[4-[[(2S)-1,4-dioxan-2-yl]methoxy]-1-methyl-2-oxo-6,7-dihydrobenzo[a]quinolizin-9-yl]oxy]azetidine-1-carboxylate] gave an IC50 of 0.01 to 100 nM. As for `[2H]C(Oc1ccc2c(c1)CCn1c(OC[C@@H]3COCCO3)c([2H])c(=O)c(C)c1-2)=C(F)F` [Compound 105, 3-deuterio-9-(1-deuterio-2,2-difluoro-vinyloxy)-4-[[(2S)-1,4-dioxan-2-yl]methoxy]-1-methyl-6,7-dihydrobenzo[a]quinolizin-2-one], the figure is 0.01 to 100 nM; as for `[2H]C([2H])(Oc1ccc2c(c1)CCn1c(OC[C@@H]3COCCO3)cc(=O)c(C)c1-2)C(F)(F)F` [Compound 106, 9-(1,1-dideuterio-2,2,2-trifluoro-ethoxy)-4-[[(2S)-1,4-dioxan-2-yl]methoxy]-1-methyl-6,7-dihydrobenzo[a]quinolizin-2-one], 0.01 to 100 nM. The result for `Cc1c2n(c(OCC3CCO3)cc1=O)CCc1cc(OCc3ccccc3)ccc1-2` (stereo not shown) [Compound 107, 9-benzyloxy-1-methyl-4-(oxetan-2-ylmethoxy)-6,7-dihydrobenzo[a]quinolizin-2-one] reads 100 to 500 nM; that for `Cc1c2n(c(OC[C@@H]3CCCO3)cc1=O)CCc1cc(OCc3ccccc3)ccc1-2` [Compound 108, 9-benzyloxy-1-methyl-4-[[(2S)-tetrahydrofuran-2-yl]methoxy]-6,7-dihydrobenzo[a]quinolizin-2-one], 0.01 to 100 nM; that for `Cc1c2n(c(OCC3CCCCO3)cc1=O)CCc1cc(OCc3ccccc3)ccc1-2` (stereo not shown) [Compound 109, 9-benzyloxy-1-methyl-4-(tetrahydropyran-2-ylmethoxy)-6,7-dihydrobenzo[a]quinolizin-2-one], 0.01 to 100 nM. As for `COC1CN(c2ccc3c(c2)CCn2c(OC[C@@H]4COCCO4)cc(=O)c(C)c2-3)C1` [Compound 110, 4-[[(2S)-1,4-dioxan-2-yl]methoxy]-9-(3-methoxyazetidin-1-yl)-1-methyl-6,7-dihydrobenzo[a]quinolizin-2-one], the figure is 0.01 to 100 nM; as for `COC1CCN(c2ccc3c(c2)CCn2c(OC[C@@H]4COCCO4)cc(=O)c(C)c2-3)CC1` [Compound 111, 4-[[(2S)-1,4-dioxan-2-yl]methoxy]-9-(4-methoxy-1-piperidyl)-1-methyl-6,7-dihydrobenzo[a]quinolizin-2-one], 0.01 to 100 nM; as for `Cc1c2n(c(OC[C@@H]3COCCO3)cc1=O)CCc1cc(N3CCC(C(=O)N4CCCCC4)CC3)ccc1-2` [Compound 112, 4-[[(2S)-1,4-dioxan-2-yl]methoxy]-1-methyl-9-[4-(piperidine-1-carbonyl)-1-piperidyl]-6,7-dihydrobenzo[a]quinolizin-2-one], 0.01 to 100 nM. `Cc1c2n(c(OC[C@@H]3COCCO3)cc1=O)CCc1cc(N3CCC(c4ccccc4)CC3)ccc1-2` [Compound 113, 4-[[(2S)-1,4-dioxan-2-yl]methoxy]-1-methyl-9-(4-phenyl-1-piperidyl)-6,7-dihydrobenzo[a]quinolizin-2-one] gave an IC50 of 0.01 to 100 nM. The result for `Cc1c2n(c(OC[C@@H]3COCCO3)cc1=O)CCc1cc(N3CCCCC3)ccc1-2` [Compound 115, 4-[[(2S)-1,4-dioxan-2-yl]methoxy]-1-methyl-9-(1-piperidyl)-6,7-dihydrobenzo[a]quinolizin-2-one] reads 0.01 to 100 nM; that for `Cc1c2n(c(OC[C@@H]3COCCO3)cc1=O)CCc1cc(N3CCCC(C)C3)ccc1-2` (stereo partly drawn) [Compound 116, 4-[[(2S)-1,4-dioxan-2-yl]methoxy]-1-methyl-9-(3-methyl-1-piperidyl)-6,7-dihydrobenzo[a]quinolizin-2-one], 0.01 to 100 nM.
